Molecules are shown by their SMILES.

As a reminder, the Kd is the equilibrium constant for the complex coming apart. A high value points to weaker binding.

This assay concerns the target T1, OsLecRK1 (MBP-OsLecRK1-His) (Oryza sativa, UniProt Q7FAZ3).
T1 construct: gene LECRK1; recombinant MBP-OsLecRK1-His fusion, purified; MBP and His tags kept; RED-NHS labelled
T1 sequence (Q7FAZ3 20-813 limits assumed): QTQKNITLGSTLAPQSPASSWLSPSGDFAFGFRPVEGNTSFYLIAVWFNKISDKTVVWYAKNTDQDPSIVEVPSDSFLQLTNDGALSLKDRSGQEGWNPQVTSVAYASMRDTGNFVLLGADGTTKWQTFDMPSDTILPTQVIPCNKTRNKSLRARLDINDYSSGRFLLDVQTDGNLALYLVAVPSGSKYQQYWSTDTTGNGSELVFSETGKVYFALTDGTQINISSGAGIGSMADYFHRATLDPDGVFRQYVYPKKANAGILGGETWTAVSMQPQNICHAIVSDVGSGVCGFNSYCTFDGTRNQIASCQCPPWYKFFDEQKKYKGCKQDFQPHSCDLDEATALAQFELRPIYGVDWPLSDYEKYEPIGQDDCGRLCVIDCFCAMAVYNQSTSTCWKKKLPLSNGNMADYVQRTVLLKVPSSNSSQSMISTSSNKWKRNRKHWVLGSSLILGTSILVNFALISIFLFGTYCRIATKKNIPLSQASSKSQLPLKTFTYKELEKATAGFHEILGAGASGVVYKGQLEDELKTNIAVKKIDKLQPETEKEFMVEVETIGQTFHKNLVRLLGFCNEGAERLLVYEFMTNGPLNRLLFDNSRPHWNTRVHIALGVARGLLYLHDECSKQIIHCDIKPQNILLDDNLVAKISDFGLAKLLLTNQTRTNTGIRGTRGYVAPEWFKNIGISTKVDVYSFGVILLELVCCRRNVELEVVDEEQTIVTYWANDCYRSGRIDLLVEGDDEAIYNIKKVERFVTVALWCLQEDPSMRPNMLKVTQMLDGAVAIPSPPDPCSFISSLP
Put plainly: microscale thermophoresis, RED-NHS labelled protein. It counts as binding. Particulars: labelled protein in NHS buffer pH 8.2 (130 mM NaHCO3, 50 mM NaCl); ligand 1.5 nM to 50 μM. The source says:
microscale thermophoresis, RED-NHS labelled protein on OsLecRK1 (MBP-OsLecRK1-His) | MBP‐OsLecRK1‐His recombinant protein bound BGTRIA, BGTRIB, BGTETB, and BGTETC with high affinities
On the technique in general: In MST a laser heats a spot of the sample, and binding alters the fluorescence response.

In turn, `OC[C@H]1O[C@@H](O[C@@H]2[C@@H](O)[C@H](O[C@H]3[C@H](O)[C@@H](O)C(O)O[C@@H]3CO)O[C@H](CO)[C@H]2O)[C@H](O)[C@@H](O)[C@@H]1O` (stereo partly drawn) [BGTRIA, 3^2‐β‐D‐glucosyl‐cellobiose] displayed a Kd of 340 nM.

The molecule `OC[C@H]1O[C@@H](O[C@H]2[C@H](O)[C@@H](O)[C@H](O[C@H]3[C@H](O)[C@@H](CO)OC(O)[C@@H]3O)O[C@@H]2CO)[C@H](O)[C@@H](O)[C@@H]1O` (stereo partly drawn) [BGTRIB, 3^1‐β‐D‐cellobiosyl‐glucose] returned a Kd of 600 nM.

The record behind these values is paper PMC10214751, “Poaceae‐specific β‐1,3;1,4‐D‐glucans link jasmonate signalling to OsLecRK1‐mediated defence response during rice‐brown planthopper interactions” (Plant Biotechnology Journal, 2023).
